Reference: patent US20210138090A1, “uPAR targeting peptide for use in peroperative optical imaging of invasive cancer” (FLUOGUIDE A/S, priority 2014, published 2021)
Square brackets hold non-standard residues; d marks the D form. Primed or numbered codes have the meaning given here. Peptide text beside a SMILES is read from it. * marks the point of attachment. ξ: configuration not given here. X1 = CC1(C)C(/C=C/C=C/C=C/C=C2\N(CCCCCC(=O)*)c3ccc4ccccc4c3C2(C)C)=[N+](CCCCS(=O)(=O)[O-])c2ccc3ccccc3c21; Cha = N[C@@H](CC1CCCCC1)C(=O)O; IRDye800CW′ = not defined here; ξR = N=C(N)NCCCC(N)C(=O)O; ξF = NC(Cc1ccccc1)C(=O)O; ξE = NC(CCC(=O)O)C(=O)O; ξD = NC(CC(=O)O)C(=O)O; AEEA = NCCOCCOCC(=O)O; ξS = NC(CO)C(=O)O

Key:
purified uPAR = purified uPAR (Homo sapiens, UniProt Q03405); test: binding affinity towards purified uPAR (first example)
Sequence of purified uPAR (Q03405 23-305): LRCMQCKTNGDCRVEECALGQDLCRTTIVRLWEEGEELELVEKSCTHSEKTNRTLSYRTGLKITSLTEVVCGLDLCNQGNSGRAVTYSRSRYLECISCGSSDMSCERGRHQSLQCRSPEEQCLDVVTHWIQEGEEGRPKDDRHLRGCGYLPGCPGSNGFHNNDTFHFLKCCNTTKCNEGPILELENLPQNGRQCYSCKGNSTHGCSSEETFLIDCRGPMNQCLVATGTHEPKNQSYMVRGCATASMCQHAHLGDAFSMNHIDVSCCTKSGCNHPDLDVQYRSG

uPAR wt = uPAR wt (Homo sapiens, UniProt Q03405); test: SPR inhibition of uPAR binding to immobilized uPA
Sequence of uPAR wt (Q03405 23-305 limits assumed): as the sequence (Q03405 23-305) above
Description: (§1) Covalent immobilization of purified human prouPA^S356A—was accomplished by injecting 12.5 μg/ml protein dissolved in 10 mM sodium acetate (pH 5.0) over a CM5 chip that had been pre-activated with NHS/EDC (N-ethyl-N′-[3-[…])propyl]-carbodiimide), aiming at a surface density of >5000 resonance units (RU) corresponding to 100 fmols/mm^2. After coupling the sensorchip was deactivated with 1 M ethanolamine. Binding of purified human uPAR as analyte was measured from 4 nM to 0.25 nM at 20° C. using 10 mM HEPES, 150 mM NaCl, 3 mM EDTA (pH 7.4) containing 0.05% (v/v) surfactant P20 as running buffer at a flow rate of 50 μl/min. In between cycles the sensorchip was regenerated by two consecutive 10-μl injections of 0.1 M acetic acid/HCl (pH 2.5) in 0.5 M NaCl. The inhibition of 3-fold dilutions of the compounds in question was measured for 4 nM uPAR with identical running conditions. All experiments were performed on a BiacoreT200 instrument.
(§2) For each inhibition peptide inhibition profile of uPAR binding to immobilized uPA there has been run a preceding standard curve and all calculations are based on the that standard curve.
(§3) Surface plasmon resonance (SPR) was applied to determine the […]-value of IRDye800-AE344 on the uPAR⋅uPA interaction in solution using a Biacore 3000 instrument essentially as described. In brief; pro-uPA^S356A, which is the natural ligand for uPAR. […] The analysis was carried out by measuring vobs of a fixed uPAR concentration (2 nM) incubated with a 3-fold dilution series of IRDye800-AE344 (ranging from 0.076 nM to 1.5 μM) for 300 sec at 20° C. with a flow rate of 50 μL/min. A standard curve was measured in parallel (2-fold dilution of uPAR covering 0.06 nM to 2 nM) including one repeated concentration point at the end to validate the biological integrity of the sensor chip. Running buffer contained 10 mM HEPES, 150 mM NaCl, 3 mM EDTA and 0.05% (v/v) surfactant P20, pH 7.4. The sensor chip was regenerated with two injections of 0.1 M acetic acid, 0.5 M NaCl. The parent nonamer peptide antagonist AE105 (Asp-Cha-Phe-D-Ser-D-Arg-Tyr-Leu-Trp-Ser-OH) was analyzed in parallel as positive control and the closed uPAR^H47C-N259C was used as negative control as its uPA binding cavity cannot accommodate AE105.

uPAR H47C-N259C = uPAR H47C-N259C (Homo sapiens, UniProt Q03405, H69C/N281C); test: SPR inhibition of uPAR binding to immobilized uPA, constrained uPAR variant (negative control); settings: SPR, constrained uPAR variant, negative control; read-out: IC50 uPAR H47C-N259C
Sequence of uPAR H47C-N259C (Q03405 23-305 H69C/N281C limits assumed): as the sequence (Q03405 23-305) above, with H47C, N259C counted along it
Description: as §1, §2
as §3, with “Running buffer contained 10 mM HEPES, 150 mM NaCl, 3 mM EDTA and 0.05% (v/v) surfactant P20, pH 7.4. The sensor chip was regenerated with two injections of 0.1 M acetic acid, 0.5 M NaCl.” left out

U87MG tumours [1] = test: optical imaging of U87MG tumour-bearing mice, IVIS Lumina XR; format: in vivo; settings: 10 nmol i.v., 15 hr post injection; for max radiance for the tumors / tumor-to-background (TBR) ratio: IVIS Lumina XR; for tumor-to-background (TBR) ratio: n=10
Description: (§4) All animal experiments were performed under a protocol approved by the Animal Research Committee of the Danish Ministry of Justice. 5*10^6 U87MG cells were suspended in 200 μl PBS and inoculated on both flanks of the mouse. When the tumours reached an appropriate size the mice were imaged with AE105-Glu-Glu-ICG.
The mice were injected with 10 nmol of AE105-Glu-Glu-ICG or ICG i.v., and imaged 15 hr post injection. Before scan the mice were anaesthetized with 2% isofluran and positioned in a prone position. For imaging the IVIS Lumina XR and the acquisition software Living Image were used. The excitation filter was set to 710 nm and the emission filter was set in the ICG position. Acquisition was set to auto-settings to achieve the best acquisition as possible.
(§5) The TBR values were calculated by drawing a ROI over each tumor and place the background ROI in an area with constant background signal.

U87MG tumours [2] = test: optical imaging of U87MG tumour-bearing mice, Fluobeam camera; format: in vivo; settings: 10 nmol i.v.
Description: as §4
After imaging with IVIS Lumina XR the mouse was moved to a Fluobeam setup and imaged with appropriate acquisition time.
as §5

[3] = comparison of fluorescence intensity of ICG and ICG-Glu-Glu-AE105; format: physicochemical; settings: data not shown
[4] = tested on: orthotopic GBM (U-87 MG-luc2 cells); test: in vivo binding specificity in orthotopic GBM (blocking with AE120, scrambled probe); parameters: species or system mice; settings: 3 nmol, 1 h, no blocking
Description: The target specificity to uPAR was evaluated by two different methods: competitive blocking with the uPAR targeting peptide AE120 ((DChaFsrYLWSG)2-βAK) and IRDye800 conjugated to a scrambled peptide, AE354 (IRDye800CW-Glu-Glu-NH—CH2—CH2—O—CH2—CH2—O—CH2—CO—NH—CH2—CH2—O—CH2—CH2—O—CH2—CO-Asp-Cha-Glu-(D)Ser-(D)Arg-Tyr-Leu-Glu-Ser-OH) with similar peptide length as the active peptide. The competitive blocking dose of 1.4-2.8 mg AE120 was injected intraperitoneally 15-30 min prior to intravenous injection of 3 nmol IRDye800CW-AE344 and imaged at 1 h (n=5). The scrambled peptide was administered at 3 nmol and the animals were imaged after 1 h (n=4).
Images were analyzed and processed in ImageJ 1.52a, NIH, USA. Signal measurements were performed on the raw images generated by the Fluoptics system. Tumor signal was measured as a mean fluorescence intensity of the whole tumor and background signal was measured as the mean of a representative area with no tumor on the contralateral hemisphere. Presented pictures are contrast enhanced in ImageJ with the Contrast Enhancement (Saturated pixels: 0.3%).

Work on CC(C)C[C@H](NC(=O)[C@H](Cc1ccc(O)cc1)NC(=O)[C@@H](CCCNC(=N)N)NC(=O)[C@@H](CO)NC(=O)[C@H](Cc1ccccc1)NC(=O)[C@H](CC1CCCCC1)NC(=O)[C@@H](N)CC(=O)O)C(=O)N[C@@H](Cc1c[nH]c2ccccc12)C(=O)N[C@@H](CO)C(=O)O [AE105, Asp-Cha-Phe-(D)Ser-(D)Arg-Tyr-Leu-Trp-Ser-OH, reference compound] yielded an IC50 (purified uPAR) of about 10 nM, an IC50 (uPAR wt) of 7.8 ± 1 nM and an IC50 (uPAR H47C-N259C) of 4500 ± 1500 nM.

CC(C)C[C@H](NC(=O)[C@H](Cc1ccc(O)cc1)NC(=O)[C@@H](CCCNC(=N)N)NC(=O)[C@@H](CO)NC(=O)[C@H](Cc1ccccc1)NC(=O)[C@H](CC1CCCCC1)NC(=O)[C@H](CC(=O)O)NC(=O)COCCOCCNC(=O)COCCOCCNC(=O)[C@H](CCC(=O)O)NC(=O)[C@@H](N)CCC(=O)O)C(=O)N[C@@H](Cc1c[nH]c2ccccc12)C(=O)N[C@@H](CO)C(=O)O [AE344, Glu Glu O2Oc O2Oc Asp Cha Phe D-Ser D-Arg Tyr Leu Trp Ser-OH] (H-EE[AEEA][AEEA]D[Cha]F[dS][dR]YLWS-OH; N-terminus assumed) gave an IC50 (uPAR wt) of 5.7 ± 0.5 nM.

For CC(C)C[C@H](NC(=O)[C@H](Cc1ccc(O)cc1)NC(=O)[C@@H](CCCNC(=N)N)NC(=O)[C@@H](CO)NC(=O)[C@H](Cc1ccccc1)NC(=O)[C@H](CC1CCCCC1)NC(=O)[C@H](CC(=O)O)NC(=O)COCCOCCNC(=O)COCCOCCNC(=O)[C@H](CCC(=O)O)NC(=O)[C@@H](N)CCC(=O)O)C(=O)N[C@@H](Cc1c[nH]c2ccccc12)C(=O)N[C@@H](CO)C(N)=O [AE345, Glu Glu O2Oc O2Oc Asp Cha Phe D-Ser D-Arg Tyr Leu Trp Ser-NH2] (H-EE[AEEA][AEEA]D[Cha]F[dS][dR]YLWS-NH2; N-terminus assumed), the IC50 (uPAR wt) was 31.8 ± 1.5 nM.

In the case of CC(C)C[C@H](NC(=O)[C@H](Cc1ccc(O)cc1)NC(=O)[C@@H](CCCNC(=N)N)NC(=O)[C@@H](CO)NC(=O)[C@H](Cc1ccccc1)NC(=O)[C@H](CC1CCCCC1)NC(=O)[C@H](CC(=O)O)NC(=O)COCCOCCNC(=O)COCCOCCN)C(=O)N[C@@H](Cc1c[nH]c2ccccc12)C(=O)N[C@@H](CO)C(=O)O [AE346, O2Oc O2Oc Asp Cha Phe D-Ser D-Arg Tyr Leu Trp Ser-OH] (H-[AEEA][AEEA]D[Cha]F[dS][dR]YLWS-OH; N-terminus assumed), the IC50 (uPAR wt) is reported as 16.1 ± 0.9 nM.

Compound CC(C)C[C@H](NC(=O)[C@H](Cc1ccc(O)cc1)NC(=O)[C@@H](CCCNC(=N)N)NC(=O)[C@@H](CO)NC(=O)[C@H](Cc1ccccc1)NC(=O)[C@H](CC1CCCCC1)NC(=O)[C@H](CC(=O)O)NC(=O)COCCOCCNC(=O)[C@H](CCC(=O)O)NC(=O)[C@@H](N)CCC(=O)O)C(=O)N[C@@H](Cc1c[nH]c2ccccc12)C(=O)N[C@@H](CO)C(N)=O [AE347, Glu Glu O2Oc Asp Cha Phe D-Ser D-Arg Tyr Leu Trp Ser-NH2] (H-EE[AEEA]D[Cha]F[dS][dR]YLWS-NH2; N-terminus assumed) has an IC50 (uPAR wt) of 3.5 ± 0.1 nM.

For CC(C)C[C@H](NC(=O)[C@H](Cc1ccc(O)cc1)NC(=O)[C@@H](CCCNC(=N)N)NC(=O)[C@@H](CO)NC(=O)[C@H](Cc1ccccc1)NC(=O)[C@H](CC1CCCCC1)NC(=O)[C@H](CC(=O)O)NC(=O)COCCOCCNC(=O)[C@@H](N)CCC(=O)O)C(=O)N[C@@H](Cc1c[nH]c2ccccc12)C(=O)N[C@@H](CO)C(N)=O [AE348, Glu O2Oc Asp Cha Phe D-Ser D-Arg Tyr Leu Trp Ser-NH2] (H-E[AEEA]D[Cha]F[dS][dR]YLWS-NH2; N-terminus assumed), the IC50 (uPAR wt) was 6.7 ± 0.2 nM.

In the case of CC(C)C[C@H](NC(=O)[C@H](Cc1ccc(O)cc1)NC(=O)[C@@H](CCCNC(=N)N)NC(=O)[C@@H](CO)NC(=O)[C@H](Cc1ccccc1)NC(=O)[C@H](CC1CCCCC1)NC(=O)[C@H](CC(=O)O)NC(=O)[C@H](CCC(=O)O)NC(=O)[C@@H](N)CCC(=O)O)C(=O)N[C@@H](Cc1c[nH]c2ccccc12)C(=O)N[C@@H](CO)C(=O)O [AE349, Glu Glu Asp Cha Phe D-Ser D-Arg Tyr Leu Trp Ser-OH] (H-EED[Cha]F[dS][dR]YLWS-OH; N-terminus assumed), the IC50 (uPAR wt) is reported as 12.5 ± 0.6 nM.

For CC1(C)C(/C=C/C=C/C=C/C=C2\N(CCCCS(=O)(=O)O)c3ccc4ccccc4c3C2(C)C)=[N+](CCCCS(=O)(=O)[O-])c2ccc3ccccc3c21 [ICG, indocyanine green, reference compound], the “uptake in the tumor” value (U87MG tumours [1]) was “No specific uptake”, the “max radiance for the tumors” value (U87MG tumours [1]) was 7.51E+06±3.13E+05 radiance efficiency and the “tumor-to-background (TBR) ratio” value (U87MG tumours [1]) was 1.04±0.04.

With CC(C)C[C@H](NC(=O)[C@H](Cc1ccc(O)cc1)NC(=O)C(CCCNC(=N)N)NC(=O)C(CO)NC(=O)C(Cc1ccccc1)NC(=O)[C@H](CC1CCCCC1)NC(=O)C(CC(=O)O)NC(=O)C(CCC(=O)O)NC(=O)C(CCC(=O)O)NC(=O)CCCCCN1\C(=C/C=C/C=C/C=C/C2=[N+](CCCCS(=O)(=O)[O-])c3ccc4ccccc4c3C2(C)C)C(C)(C)c2c1ccc1ccccc21)C(=O)N[C@@H](Cc1c[nH]c2ccccc12)C(=O)N[C@@H](CO)C(=O)O (stereo partly drawn) [ICG-Glu-Glu-AE105] (X1-[ξE][ξE][ξD][Cha][ξF][ξS][ξR]YLWS-OH) the IC50 (purified uPAR) was about 80 nM, the “uptake in the tumor” value (U87MG tumours [1]) was “high uptake” and the “max radiance for the tumors” value (U87MG tumours [1]) was 3.43E+08±0.34E+08 radiance efficiency. The “tumor-to-background (TBR) ratio” value (U87MG tumours [1]) was 3.52±0.167, the TBR (U87MG tumours [2]) was 3.58±0.29 and the “decrease in fluorescence intensity for the conjugated probe compared with ICG” value [3] was 2 fold. It also gave an IC50 (uPAR wt) of 142 ± 13 nM and an IC50 (uPAR H47C-N259C) of 990 ± 50 nM.

With “IRDye800CW-Glu-Glu-NH—CH2—CH2—O—CH2—CH2—O—CH2—CO—NH—CH2—CH2—O—CH2—CH2—O—CH2—CO-Asp-Cha-Glu-(D)Ser-(D)Arg-Tyr-Leu-Glu-Ser-OH ({IRDye800CW′}-EE[AEEA][AEEA]D[Cha]E[dS][dR]YLES-OH) [IRDye800CW-AE354, reference compound]” the TBR [4] was 3.4 and the “normalized TBR (ref: active probe)” value [4] was 0.52.
